For the experiment, the system named is CD2F1 mice, L1210 leukemia ip, survival T/C. Description: NCI In Vivo Anticancer Drug Screen. Data for tumor model L1210 Leukemia (intraperitoneal) in CD2F1 (CDF1) mice. To be noted: endpoint: mean survival time, higher = longer survival. An outline of the steps:
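Antitumor effect is scored in animals hosting a serially transplanted tumor. Values compare compound-dosed animals against vehicle-only controls as a simple quotient.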

Where [1] appears, read: dose: 100.0 mg/kg/injection, schedule: Q04DX003 (ip), vehicle: saline with Tween-80.
Where [2] appears, read: dose: 200.0 mg/kg/injection, schedule: Q04DX003 (ip), vehicle: saline with Tween-80.
The mark [3] stands for this setting: dose: 400.0 mg/kg/injection, schedule: Q04DX003 (ip), vehicle: saline with Tween-80.
The mark [4] stands for this setting: dose: 100.0 mg/kg/injection, schedule: Q01DX001 (ip), vehicle: saline with Tween-80.
The mark [5] stands for this setting: dose: 200.0 mg/kg/injection, schedule: Q01DX001 (ip), vehicle: saline with Tween-80.
Where [6] appears, read: dose: 400.0 mg/kg/injection, schedule: Q01DX001 (ip), vehicle: saline with Tween-80.
Setting [7] is: dose: 100.0 mg/kg/injection, schedule: Q01DX009 (ip), vehicle: saline with Tween-80.

Each structure is given as a SMILES string. Several values for one entry are separate records, joined by “and”; a condition that tells them apart may be missing. Equal entries are not always repeated. Inconclusive results and toxic doses are left out.

`Nc1ncnc2c1ncn2C(C=O)OC(C=O)CO` (stereo not given): where the note is “dose: 35.0 mg/kg/injection, schedule: Q01DX001 (ip), vehicle: saline”, the T/C is 117 % of control.

On to `CN(C)Cc1ncccc1O`, for which the T/C is 110 % of control (dose: 50.0 mg/kg/injection, schedule: Q01DX009 (ip), vehicle: suspension in saline); 108 % of control (dose: 100.0 mg/kg/injection, schedule: Q01DX009 (ip), vehicle: suspension in saline); 112 % of control (dose: 200.0 mg/kg/injection, schedule: Q01DX009 (ip), vehicle: suspension in saline).

As for `C/C=C(\C(=C\C)c1ccc(OC(=O)c2ccccc2)c(C2CCCCC2)c1)c1ccc(O)c(C2CCCCC2)c1`, the T/C runs as follows: (dose: 75.0 mg/kg/injection, schedule: Q01DX001 (ip), vehicle: saline) 95 % of control; (dose: 150.0 mg/kg/injection, schedule: Q01DX001 (ip), vehicle: saline) 95 % of control; (dose: 300.0 mg/kg/injection, schedule: Q01DX001 (ip), vehicle: saline) 103 % of control.

Regarding `COc1ccc([N+](=O)[O-])cc1CO/N=C(/CCC(=O)O)C(=O)O`, the T/C is 101 % of control under setting [1], 106 % of control under setting [2] and 101 % of control under setting [3].

For `C1=C(c2ccccc2)NCC1c1ccccc1` (stereo not given), the T/C under setting [4] was 94 % of control, the T/C under setting [5] is 86 % of control and the T/C under setting [6] was 89 % of control.

With `CC(=O)OC1CS(=O)(=O)CC1Br` (stereo not given), the T/C by setting is: under setting [4], 103 % of control; under setting [5], 98 % of control; under setting [6], 98 % of control.

In the case of `NC(CCl)=NCCc1ccsc1`, the T/C reads like this: (dose: 25.0 mg/kg/injection, schedule: Q04DX002 (ip), vehicle: saline) 95 % of control; (dose: 50.0 mg/kg/injection, schedule: Q04DX002 (ip), vehicle: saline) 106 % of control; (dose: 100.0 mg/kg/injection, schedule: Q04DX002 (ip), vehicle: saline) 98 % of control and 112 % of control.

On to `CC(C)C(O)c1ccccc1` (stereo not given), for which the T/C (dose: 12.5 mg/kg/injection, schedule: Q01DX009 (ip), vehicle: saline with Tween-80) is 103 % of control; the T/C (dose: 25.0 mg/kg/injection, schedule: Q01DX005 (ip), vehicle: saline with Tween-80) is 92 % of control; the T/C (dose: 25.0 mg/kg/injection, schedule: Q01DX009 (ip), vehicle: saline with Tween-80) is 106 % of control; the T/C (dose: 50.0 mg/kg/injection, schedule: Q01DX005 (ip), vehicle: saline with Tween-80) is 95 % of control; the T/C (dose: 50.0 mg/kg/injection, schedule: Q01DX009 (ip), vehicle: saline with Tween-80) is 95 % of control; the T/C (dose: 50.0 mg/kg/injection, schedule: Q04DX002 (ip), vehicle: saline with Tween-80) was 108 % of control. Further, the T/C is 88 % of control (dose: 100.0 mg/kg/injection, schedule: Q01DX005 (ip), vehicle: saline with Tween-80); 88 % of control under setting [7]; 101 % of control (dose: 100.0 mg/kg/injection, schedule: Q04DX002 (ip), vehicle: saline with Tween-80); 89 % of control (dose: 200.0 mg/kg/injection, schedule: Q04DX002 (ip), vehicle: saline with Tween-80).

Take `[Pt+2].[S-]c1ccccc1.[S-]c1ccccc1.c1ccc([PH+](c2ccccc2)c2ccccc2)cc1.c1ccc([PH+](c2ccccc2)c2ccccc2)cc1`: the T/C was 97 % of control (dose: 3.13 mg/kg/injection, schedule: Q04DX003 (sc), vehicle: distilled water + Tween-80); 110 % of control (dose: 6.25 mg/kg/injection, schedule: Q04DX003 (sc), vehicle: distilled water + Tween-80); 103 % of control (dose: 12.5 mg/kg/injection, schedule: Q04DX003 (sc), vehicle: distilled water + Tween-80); 97 % of control (dose: 25.0 mg/kg/injection, schedule: Q04DX003 (sc), vehicle: distilled water + Tween-80); 91 % of control (dose: 50.0 mg/kg/injection, schedule: Q04DX003 (sc), vehicle: distilled water + Tween-80); 89 % of control (dose: 100.0 mg/kg/injection, schedule: Q04DX003 (sc), vehicle: distilled water + Tween-80).

On to `CCOC(=O)CCCSc1nn(C2OC(COC(=O)c3ccccc3)C(OC(=O)c3ccccc3)C2OC(=O)c2ccccc2)c(=O)[nH]c1=O` (stereo not given), for which the T/C (dose: 12.5 mg/kg/injection, schedule: Q01DX005 (ip), vehicle: distilled water + Tween-80) was 93 % of control; the T/C (dose: 25.0 mg/kg/injection, schedule: Q01DX005 (ip), vehicle: distilled water + Tween-80) is 90 % of control; the T/C (dose: 50.0 mg/kg/injection, schedule: Q01DX005 (ip), vehicle: distilled water + Tween-80) is 93 % of control; the T/C (dose: 100.0 mg/kg/injection, schedule: Q01DX005 (ip), vehicle: distilled water + Tween-80) was 88 % of control; the T/C (dose: 200.0 mg/kg/injection, schedule: Q01DX005 (ip), vehicle: distilled water + Tween-80) is 92 % of control.

For `CC(=O)OCC(=O)[C@@]1(O)CC[C@H]2[C@@H]3CCC4=CC(=O)C=C[C@]4(C)[C@H]3C(=O)C[C@@]21C`, the T/C (dose: 12.5 mg/kg/injection, schedule: Q04DX003 (ip), vehicle: Klucel (hydroxypropylcellulose) (HPC)) is 101 % of control; the T/C (dose: 25.0 mg/kg/injection, schedule: Q04DX003 (ip), vehicle: Klucel (hydroxypropylcellulose) (HPC)) was 109 % of control; the T/C (dose: 50.0 mg/kg/injection, schedule: Q04DX003 (ip), vehicle: Klucel (hydroxypropylcellulose) (HPC)) is 100 % of control.

As for `CCOC(=O)c1sc(N)c(C(=O)OCC)c1C`, the T/C runs as follows: under setting [7], 98 % of control; under setting [1], 95 % of control; (dose: 200.0 mg/kg/injection, schedule: Q01DX009 (ip), vehicle: saline with Tween-80) 93 % of control; under setting [2], 95 % of control; (dose: 400.0 mg/kg/injection, schedule: Q01DX009 (ip), vehicle: saline with Tween-80) 91 % of control; under setting [3], 101 % of control.

Regarding `C[N+]1=C2CCCC2=C(N)CC1`, the T/C by setting is: (dose: 6.25 mg/kg/injection, schedule: Q01DX009 (ip), vehicle: saline) 105 % of control; (dose: 12.5 mg/kg/injection, schedule: Q01DX009 (ip), vehicle: saline) 100 % of control; (dose: 25.0 mg/kg/injection, schedule: Q01DX009 (ip), vehicle: saline) 98 % of control.

Consider `NNc1ncnc2c(C3OC(CO)C(O)C3O)[nH]nc12` (stereo not given), for which the T/C (dose: 150.0 mg/kg/injection, schedule: Q01DX009 (ip), vehicle: saline sonified) was 155 % of control.

Take `C=CCOc1c(C(=O)OCC)cnc2c1cnn2CC`: the T/C is, setting by setting: (dose: 100.0 mg/kg/injection, schedule: Q04DX003 (ip), vehicle: Klucel (hydroxypropylcellulose) (HPC)) 108 % of control; (dose: 200.0 mg/kg/injection, schedule: Q04DX003 (ip), vehicle: Klucel (hydroxypropylcellulose) (HPC)) 108 % of control; (dose: 400.0 mg/kg/injection, schedule: Q04DX003 (ip), vehicle: Klucel (hydroxypropylcellulose) (HPC)) 101 % of control.

For `CC1=C(C)C2(C)C(C)(O)C(C)(O)C12C` (stereo not given), the T/C (dose: 18.75 mg/kg/injection, schedule: Q01DX009 (ip), vehicle: saline with Tween-80) is 98 % of control; the T/C (dose: 37.5 mg/kg/injection, schedule: Q01DX009 (ip), vehicle: saline with Tween-80) is 93 % of control; the T/C (dose: 75.0 mg/kg/injection, schedule: Q01DX009 (ip), vehicle: saline with Tween-80) is 96 % of control.

Consider `OC(CI)C(O)C(O)C(O)CI` (stereo not given), for which the T/C (dose: 25.0 mg/kg/injection, schedule: Q01DX009 (oral), vehicle: other) was 106 % of control; the T/C (dose: 50.0 mg/kg/injection, schedule: Q01DX009 (oral), vehicle: other) is 106 % of control; the T/C (dose: 100.0 mg/kg/injection, schedule: Q01DX009 (oral), vehicle: other) is 95 % of control; the T/C (dose: 200.0 mg/kg/injection, schedule: Q01DX009 (oral), vehicle: other) is 107 % of control; the T/C (dose: 400.0 mg/kg/injection, schedule: Q01DX009 (oral), vehicle: other) is 107 % of control; the T/C (dose: 800.0 mg/kg/injection, schedule: Q01DX009 (oral), vehicle: other) is 124 % of control.

Turning to `CC12CCC(=O)C=C1CCCC2O` (stereo not given), the T/C was 97 % of control (dose: 100.0 mg/kg/injection, schedule: Q04DX003 (ip), vehicle: saline sonified) and 112 % of control (dose: 200.0 mg/kg/injection, schedule: Q04DX003 (ip), vehicle: saline sonified).

Regarding `C1OC2OC3OCOC3C2O1` (stereo not given), the T/C was 101 % of control under setting [1], 95 % of control under setting [2] and 95 % of control under setting [3].

The values above are taken from PubChem BioAssay AID256 (DTP/NCI, 2004).
